Activity calls are given as the source filed them. The calls are words filed in the database; no cut-off is given here.
Assays:
[1] = Cmax in Sprague-Dawley rat at 10 mg/kg, po measured up to 24 hrs by LC-MS/MS analysis; assay type: ADME, organism-based; parameters: route oral, dose 10 mg/kg, time <=24; settings: in vivo
MV4-11 [2] = assay: Antitumor activity against human MV4-11 cells xenografted in BALB/c nude mouse assessed as induction of tumor necrosis at 20 mg/kg, ip administered every two days for 14 days by hematoxyin-eosin staining based analysis; assay type: functional, organism-based; settings: time 14.0 day
[3] = Half life in human liver microsomes; assay type: ADME, Microsome
K562 [4] = assay: Antiproliferative activity against human K562 cells assessed as decrease in cell viability measured after 72 hrs by MTT assay; assay type: functional, cell-based; settings: K562, 72 h
[5] = Toxicity in BALB/c nude mouse xenografted with human MV4-11 cells assessed as effect on kidney at 20 mg/kg, ip administered every two days for 14 days by hematoxyin-eosin staining based analysis; assay type: organism-based; settings: in vivo, 336 h, time 14 day
[6] = Half life in Sprague-Dawley rat at 3 mg/kg, iv measured up to 24 hrs by LC-MS/MS analysis; assay type: ADME, organism-based; settings: in vivo
NCI-H929 [7] = assay: Induction of apoptosis in human NCI-H929 cells assessed as activation of caspase 7 after 4 hrs by luminescence based microplate reader assay; assay type: functional, cell-based; settings: dose microM <=5, time 4.0 hrs
[8] = Stability of the compound in mouse plasma assessed as parent compound remaining measured after 2 hrs by LC-MS/MS analysis; assay type: ADME, cell-free; settings: read-out: Stabilty
[9] = Toxicity in BALB/c nude mouse xenografted with human MV4-11 cells assessed as effect on kidney weight at 20 mg/kg, ip administered every two days for 14 days; assay type: organism-based; settings: in vivo, 336 h, time 14 day
[10] = Toxicity in BALB/c nude mouse xenografted with human MV4-11 cells assessed as effect on body weight at 60 mg/kg, po administered every two days for 14 days; assay type: organism-based; settings: in vivo, 336 h, time 14 day
MV4-11 [11] = assay: Antiproliferative activity against human MV4-11 cells assessed as decrease in cell viability measured after 72 hrs by MTT assay; assay type: functional, cell-based; settings: MV4-11, 72 h
[12] = Toxicity in BALB/c nude mouse xenografted with human MV4-11 cells assessed as effect on heart weight at 20 mg/kg, ip administered every two days for 14 days; assay type: organism-based; settings: in vivo, 336 h, time 14 day
MV4-11 [13] = assay: Induction of apoptosis in human MV4-11 cells xenografted in BALB/c nude mouse assessed as induction of PARP cleavage at 20 mg/kg, ip administered every two days for 14 days by Western blot analysis; assay type: functional, organism-based; settings: time 14.0 day
CYP2C9 = CYP2C9 (Homo sapiens, UniProt P11712); assay: Inhibition of CYP2C9 (unknown origin) at 10 uM preincubated for 5 min followed by NADPH addition and measured after 20 mins by LC-MS/MS analysis relative to control; assay type: ADME; settings: time 25 min
Sequence of CYP2C9 (P11712 whole entry): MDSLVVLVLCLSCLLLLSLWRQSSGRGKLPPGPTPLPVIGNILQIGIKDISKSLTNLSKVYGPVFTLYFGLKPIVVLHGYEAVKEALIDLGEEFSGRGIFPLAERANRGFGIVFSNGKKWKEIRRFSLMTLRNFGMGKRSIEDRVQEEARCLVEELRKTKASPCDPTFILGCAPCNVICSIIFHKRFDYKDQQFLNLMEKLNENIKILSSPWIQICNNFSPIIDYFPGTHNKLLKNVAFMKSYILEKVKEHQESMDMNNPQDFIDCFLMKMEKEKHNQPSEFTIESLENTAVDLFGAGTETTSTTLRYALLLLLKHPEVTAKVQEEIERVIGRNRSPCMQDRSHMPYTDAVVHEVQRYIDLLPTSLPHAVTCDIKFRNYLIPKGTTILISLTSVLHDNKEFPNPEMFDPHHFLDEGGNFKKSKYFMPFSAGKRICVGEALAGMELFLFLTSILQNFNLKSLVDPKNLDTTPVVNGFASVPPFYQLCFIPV

[14] = Half life in Sprague-Dawley rat at 10 mg/kg, po measured up to 24 hrs by LC-MS/MS analysis; assay type: ADME, organism-based; settings: in vivo
CYP1A2 = target: T1, CYP1A2 (Homo sapiens, UniProt P05177); assay: Inhibition of CYP1A2 (unknown origin) at 10 uM preincubated for 5 min followed by NADPH addition and measured after 20 mins by LC-MS/MS analysis relative to control; assay type: ADME; settings: time 25 min
T1 sequence (P05177 whole entry): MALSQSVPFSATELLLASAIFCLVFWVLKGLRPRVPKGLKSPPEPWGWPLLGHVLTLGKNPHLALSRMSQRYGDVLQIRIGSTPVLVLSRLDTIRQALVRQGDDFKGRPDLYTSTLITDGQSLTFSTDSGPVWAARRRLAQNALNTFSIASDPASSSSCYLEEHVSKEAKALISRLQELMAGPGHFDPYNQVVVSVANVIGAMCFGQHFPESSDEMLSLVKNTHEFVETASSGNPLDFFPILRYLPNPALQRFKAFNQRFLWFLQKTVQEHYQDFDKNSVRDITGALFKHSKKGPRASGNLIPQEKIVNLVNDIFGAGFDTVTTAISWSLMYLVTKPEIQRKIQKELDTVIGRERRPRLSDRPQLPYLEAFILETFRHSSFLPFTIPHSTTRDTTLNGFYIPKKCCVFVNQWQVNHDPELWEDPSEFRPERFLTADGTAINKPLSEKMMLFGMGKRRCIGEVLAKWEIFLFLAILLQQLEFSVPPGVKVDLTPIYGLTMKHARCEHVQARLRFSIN

Bcl-2-like protein 2 = target: T2, Bcl-2-like protein 2 (Homo sapiens, UniProt Q92843); assay: Binding affinity to human partial length BCLW (M1 to R171 residues) expressed in bacterial expression system by BCL2SCAN assay
T2 sequence (Q92843 whole entry): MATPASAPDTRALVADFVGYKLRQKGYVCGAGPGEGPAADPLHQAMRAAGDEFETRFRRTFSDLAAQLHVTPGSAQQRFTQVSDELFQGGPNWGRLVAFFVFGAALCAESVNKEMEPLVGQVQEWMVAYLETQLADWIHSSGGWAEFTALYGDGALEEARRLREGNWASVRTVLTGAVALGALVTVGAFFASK

NCI-H23 = assay: Antiproliferative activity against human NCI-H23 cells assessed as decrease in cell viability measured after 72 hrs by MTT assay; assay type: functional, cell-based; settings: NCI-H23, 72 h
[15] = target: Voltage-gated inwardly rectifying potassium channel KCNH2 (Homo sapiens, UniProt Q12809); assay: Inhibition of human ERG
Sequence of Voltage-gated inwardly rectifying potassium channel KCNH2 (Q12809 whole entry): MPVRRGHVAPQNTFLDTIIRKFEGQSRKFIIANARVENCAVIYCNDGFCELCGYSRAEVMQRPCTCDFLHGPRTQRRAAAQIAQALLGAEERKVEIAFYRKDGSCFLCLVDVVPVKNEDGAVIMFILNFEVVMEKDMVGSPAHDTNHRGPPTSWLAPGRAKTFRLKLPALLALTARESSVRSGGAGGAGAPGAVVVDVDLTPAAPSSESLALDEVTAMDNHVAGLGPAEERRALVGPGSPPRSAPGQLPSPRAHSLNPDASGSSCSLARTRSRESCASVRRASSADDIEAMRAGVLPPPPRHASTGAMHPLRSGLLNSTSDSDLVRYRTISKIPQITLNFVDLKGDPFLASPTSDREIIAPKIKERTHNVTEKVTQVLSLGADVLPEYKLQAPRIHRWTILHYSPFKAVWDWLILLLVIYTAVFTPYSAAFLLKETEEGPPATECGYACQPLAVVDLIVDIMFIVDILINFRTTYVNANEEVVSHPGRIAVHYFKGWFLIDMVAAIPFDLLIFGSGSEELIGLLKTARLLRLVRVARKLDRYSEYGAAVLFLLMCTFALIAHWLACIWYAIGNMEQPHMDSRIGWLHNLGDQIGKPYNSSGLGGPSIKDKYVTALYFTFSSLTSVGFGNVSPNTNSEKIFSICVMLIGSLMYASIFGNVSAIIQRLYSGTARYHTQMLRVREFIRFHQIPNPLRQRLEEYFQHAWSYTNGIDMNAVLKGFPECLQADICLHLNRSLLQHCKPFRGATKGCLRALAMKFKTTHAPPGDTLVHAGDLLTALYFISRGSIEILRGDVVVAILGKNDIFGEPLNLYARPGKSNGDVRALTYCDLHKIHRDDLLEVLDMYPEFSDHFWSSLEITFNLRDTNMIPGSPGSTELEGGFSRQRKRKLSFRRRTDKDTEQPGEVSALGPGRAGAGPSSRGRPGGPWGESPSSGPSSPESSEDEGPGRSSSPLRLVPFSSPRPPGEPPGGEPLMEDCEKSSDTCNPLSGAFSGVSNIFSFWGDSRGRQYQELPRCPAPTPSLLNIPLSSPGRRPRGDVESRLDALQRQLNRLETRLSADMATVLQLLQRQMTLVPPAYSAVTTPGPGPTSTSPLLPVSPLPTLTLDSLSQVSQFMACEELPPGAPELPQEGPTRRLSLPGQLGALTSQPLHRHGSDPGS

[16] = Toxicity in BALB/c nude mouse xenografted with human MV4-11 cells assessed as effect on liver at 20 mg/kg, ip administered every two days for 14 days by hematoxyin-eosin staining based analysis; assay type: organism-based; settings: in vivo, 336 h, time 14 day
NCI-H929 [17] = assay: Induction of apoptosis in human NCI-H929 cells measured after 48 hrs by annexinV-FITC/propidium iodide staining based flow cytometry analysis; assay type: functional, cell-based; settings: dose 1-5 µM
[18] = Toxicity in BALB/c nude mouse xenografted with human MV4-11 cells assessed as effect on heart at 60 mg/kg, po administered every two days for 14 days by hematoxyin-eosin staining based analysis; assay type: organism-based; settings: in vivo, 336 h, time 14 day
MV4-11 [19] = assay: Antitumor activity against human MV4-11 cells xenografted in BALB/c nude mouse assessed as tumor growth inhibition by measuring T/C ratio at 60 mg/kg, po administered every two days for 14 days relative to control; assay type: functional; settings: time 14 day
SK-BR-3 = assay: Antiproliferative activity against human SK-BR-3 cells assessed as decrease in cell viability measured after 72 hrs by MTT assay; assay type: functional, cell-based; settings: SK-BR-3, 72 h
[20] = Toxicity in BALB/c nude mouse xenografted with human MV4-11 cells assessed as effect on heart weight at 60 mg/kg, po administered every two days for 14 days; assay type: organism-based; settings: in vivo, 336 h, time 14 day
CYP3A4 = CYP3A4 (Homo sapiens, UniProt P08684); assay: Inhibition of CYP3A4 (unknown origin) at 10 uM preincubated for 5 min followed by NADPH addition and measured after 20 mins by LC-MS/MS analysis relative to control; assay type: ADME; settings: time 25 min
Sequence of CYP3A4 (P08684 whole entry): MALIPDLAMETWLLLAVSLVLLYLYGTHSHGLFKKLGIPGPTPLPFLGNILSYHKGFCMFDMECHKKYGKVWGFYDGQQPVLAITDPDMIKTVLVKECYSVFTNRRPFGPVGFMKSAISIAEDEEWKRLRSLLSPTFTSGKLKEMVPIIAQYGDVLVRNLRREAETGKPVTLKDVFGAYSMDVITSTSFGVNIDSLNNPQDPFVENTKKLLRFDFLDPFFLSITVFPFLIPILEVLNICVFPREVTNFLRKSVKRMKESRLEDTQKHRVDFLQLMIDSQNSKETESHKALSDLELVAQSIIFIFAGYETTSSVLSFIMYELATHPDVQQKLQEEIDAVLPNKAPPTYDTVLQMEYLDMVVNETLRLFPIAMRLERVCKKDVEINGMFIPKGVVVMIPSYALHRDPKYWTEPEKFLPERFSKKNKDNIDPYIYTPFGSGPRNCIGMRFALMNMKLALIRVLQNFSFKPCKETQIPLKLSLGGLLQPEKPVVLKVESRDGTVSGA

K562 [21] = assay: Induction of apoptosis in human K562 cells assessed as activation of caspase 3 up to 5 uM after 4 hrs by luminescence based microplate reader assay; assay type: functional, cell-based; settings: dose microM <=5, time 4.0 hrs
[22] = Stability in rat liver microsomes assessed as parent compound remaining preincubated for 5 mins followed by NADPH addition and measured after 30 mins by LC-MS/MS analysis; assay type: ADME, Microsome; settings: time 35 min, read-out: Stabilty

CC(=O)c1ccc(S(=O)(=O)c2c(C)c(C(=O)O)n(CCCOc3cc(C)c(Cl)c(C)c3)c2C)cc1
Cmax [1]: 2010 ng/mL | Activity (MV4-11 [2]): Active | half-life [3]: 0.83 h | IC50 (K562 [4]): > 30 µM | Activity [5]: Non-Toxic | half-life [6]: 2.3 h | Activity (NCI-H929 [7]): Dose-Dependent Effect | remaining at 2 h [8]: 100% | Activity [9]: Non-Toxic | Activity [10]: Non-Toxic | IC50 (MV4-11 [11]): 0.7 µM | Activity [12]: Non-Toxic | Activity (MV4-11 [13]): Active | inhibition at 20 min, 10 µM (CYP2C9): 26% | half-life [14]: 2.1 h | inhibition at 20 min, 10 µM (CYP1A2): 19.3% | Kd (Bcl-2-like protein 2): > 10 µM | IC50 (NCI-H23): 3.02 µM | IC50 [15]: > 30 µM | Activity [16]: Non-Toxic | Activity (NCI-H929 [17]): Dose-Dependent Effect | Activity [18]: Non-Toxic | T/C (MV4-11 [19]): 37.3% | IC50 (SK-BR-3): 2.84 µM | Activity [20]: Non-Toxic | inhibition at 20 min, 10 µM (CYP3A4): 29.4% | Activity (K562 [21]): inactive | remaining at 0.5 h [22]: 58.1%
